Read-outs that look alike come from different tables or passages of the source.
Assays:
[1] = target: Human Glucocorticoid Receptor (GR) (Homo sapiens (Human), UniProt P04150); assay: Human Glucocorticoid Receptor (GR) radioligand binding assay (competition with 3H-labeled Dexamethasone); conditions: full length GR, 7 nM 3H-dexamethasone, 2 h at room temperature; read-out: GR Hu Bind Filter Mean Control IC50
Protocol: Human Glucocorticoid Receptor (GR) Assay
The radioligand GR binding assay is based on a competition assay using ^3H-labeled Dexamethasone, Dexamethasone is known to bind in the ligand binding domain of GR and compete for binding with endogenous ligands like e.g. cortisol (Necela, 2003).
In the GR radioligand binding assay, test compounds were serially diluted in semi-log steps (10 concentrations) with a final concentration of 10 μM. Test compounds (1 μL) and controls (1 μL) in 100% DMSO were added to 96 Greiner V-bottom polypropylene plates. 0% control was 6.7% DMSO (final concentration in assay) and 100% control was 6.7 μM Dexamethasone.
The full length GR was diluted to a final concentration of 3.3% (0.495 mg/ml) in assay buffer (20 mM Tris-HCl, 1 mM EDTA, 10% (w/v) Glycerol, 20 mM Sodium molbydate, pH 7.4). 45 μL of GR was added to each well and the plates were incubated for 15 min at room temperature.
^3H-dexamethasone solution was diluted to a concentration of 70 nM in assay buffer (7 nM final assay concentration) and 5 μL was added to each well. The samples were mixed for 5 min using a plate shaker at 700 rpm, before incubation for 2 h at room temperature,
50 μL ice-cold charcoal solution (pH 7.4: 2% Charcoal, 0.2% Dextran T70 in 20 mM Tris-HCl, 1 mM EDTA and 20 mM Sodium molbydate) was'added to each well and the samples were mixed on plate shaker for 5 minutes.
The plate was then centrifuged for 1.5 min at 1500 rpm, the samples (80 μL) were transferred from each well to a filter plate (Millipore, 0.45 μm, MHVBN45) on a vacuum manifold and then collected into new plates (Greiner, 96 well white/transparent, 655095). The filter plate was washed once with 20 μl of water and then 100 μL of scintillation liquid was added to each well and mixed by incubation on plate shaker for 5 min. Radioactivity was measured in a 1450 Microbeta Trilux Reader (Wallac) counting cpm for 2 minutes per well. The data obtained from each replicate experiment were analysed using the software ActivityBase, version 5.4.3 (ID Business Solutions Ltd) and IC50 values were calculated. Ref: Necela, B M, Cidlowski, J A, Trends Pharmacol Sci, 24: 58, 2003

[2] = tested on: AP-1/TRE-activity in ChaGo-K-1 cells transfected with 5×TRE-LacZ; assay: Transrepression Reporter Gene Assay (TRE-LacZ transfected ChaGo-K-1 cells, PMA stimulated); assay type: cell-based, human; conditions: PMA 10 ng/ml, Dexamethasone 10^-6 M set as 100 percent control, read-out: Agonism TRE IC50
Protocol: Transrepression Reporter Gene Assay
The human bronchogenic carcinoma cell-line, ChaGo-K-1 (ATCC: HTB 168), were transfected with 5×TRE-LacZ (clone 16:15:5 s5), i.e. TRE transfected cells, to measure transrepression activity of the selected compounds. Before use, the cells were grown for one to two weeks in selection medium containing 0.7 mg geneticin (G418)/ml medium. The cells were cultured at 37° C., 5% CO2 and 100% humidity in 96 well microtiter plates in RPMI-medium complemented with 10% fetal calf serum, 1% non-essential amino acids and 1% sodium pyruvate. The cells were passaged once weekly.
The TRE transfected cells were seeded in 96 well plates with 25-30 000 cells/well and grown for 72-96 h, to reach about 80% confluence. To stimulate the upregulation of the AP-1/TRE-activity, the cells were stimulated with 10 ng/ml Phorbol Myristate acetate (PMA) 3-5 h prior to addition of compounds. The PMA was present during the whole experiment. The TRE mediated effects (transrepression) in the transfected ChagGo-K-1 cells was measured as downregulation of β-galactosidase activity. The β-galactosidase activity for the transrepression experiments was measured by a fluorometric assay performed in microtiter plates. Cells were washed once in PBS. 180 μl of a reaction mixture containing 5 parts of Z-buffer and one part 4-methylumbelliferyl-β-D-galactosidase (MUG)-solution was then added (150 μl Z-buffer [18 μl 0.6 M Na2HPO4, 12 μl 0.6 M NaH2PO4, 7.2 μl 0.25 M KCl, 18 μl 0.01 M MgSO4, 1.8 μl 10% Triton X-100, 93 μl H2O]+30 μl 3 mM 4-methylumbelliferyl-[…]). After 60 min incubation at 37° C., 70 μl stop buffer was added to each well and the fluorescence was read in a fluorometer (Spectramax Gemini) with emission filter at 460 nm and excitation filter at 360 nm. The TRE activity was calculated as the relative activity compared to cells not treated with compounds. Inhibition of β-galactosidase by the compounds is expressed as percent inhibition compared to Dexamethasone 10^−6 M set as a 100 percent control within each experiment and DMSO 0.1% set as background control. The effect of Dexamethasone is well documented in this system and was therefore chosen as a positive control for comparison of the potency and efficacy of the compounds.

[3] = Homo sapiens, ChaGo-K-1, downregulation of β-galactosidase activity

Human Glucocorticoid Receptor (GR), sequence (P04150 whole entry): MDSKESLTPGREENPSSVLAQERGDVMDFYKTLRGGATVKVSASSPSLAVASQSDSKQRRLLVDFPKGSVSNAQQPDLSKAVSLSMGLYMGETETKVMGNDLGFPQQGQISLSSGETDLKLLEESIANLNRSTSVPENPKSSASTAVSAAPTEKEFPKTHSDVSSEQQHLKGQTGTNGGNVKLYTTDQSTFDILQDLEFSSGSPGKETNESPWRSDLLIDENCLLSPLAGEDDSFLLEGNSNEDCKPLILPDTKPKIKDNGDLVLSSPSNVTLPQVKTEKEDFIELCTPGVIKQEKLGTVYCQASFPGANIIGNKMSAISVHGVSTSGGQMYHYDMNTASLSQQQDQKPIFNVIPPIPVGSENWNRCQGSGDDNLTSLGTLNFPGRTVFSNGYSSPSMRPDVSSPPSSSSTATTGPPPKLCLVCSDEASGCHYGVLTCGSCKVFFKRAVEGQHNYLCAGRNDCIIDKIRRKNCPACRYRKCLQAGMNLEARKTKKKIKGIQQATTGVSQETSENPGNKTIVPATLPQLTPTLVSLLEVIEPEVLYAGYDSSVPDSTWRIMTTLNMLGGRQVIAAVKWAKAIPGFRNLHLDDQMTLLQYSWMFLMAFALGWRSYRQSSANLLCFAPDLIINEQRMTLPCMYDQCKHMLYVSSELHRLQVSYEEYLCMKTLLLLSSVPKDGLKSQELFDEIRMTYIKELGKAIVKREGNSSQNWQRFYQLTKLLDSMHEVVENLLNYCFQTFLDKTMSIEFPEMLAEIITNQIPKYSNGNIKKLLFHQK

`C[C@H](NC(=O)C(C)(F)F)[C@H](Oc1ccc2c(cnn2-c2cccc(C(=O)N[C@@H]3CCC[C@@H]3O)c2)c1)c1ccc2c(c1)OCOC2` [Example 14, 3-[5-({(1R,2S)-1-(4H-1,3-benzodioxin-7-yl)-2-[(2,2-difluoropropanoyl)amino]propyl}oxy)-1H-indazol-1-yl]-N-[(1R,2S)-2-hydroxycyclopentyl]benzamide] showed an IC50 [1] of 1.75 nM and an IC50 [2, 3] of 0.145 nM.

For `C[C@H](NC(=O)C(C)(F)F)[C@H](Oc1ccc2c(cnn2-c2cccc(C(=O)N[C@@H]3CCC[C@@H]3O)c2)c1)c1ccc2c(c1)OCCO2` [Example 10, 3-(5-{[(1R,2S)-2-[(2,2-difluoropropanoyl)amino]-1-(2,3-dihydro-1,4-benzodioxin-6-yl)propyl]oxy}-1H-indazol-1-yl)-N-[(1R,2S)-2-hydroxycyclopentyl]benzamide], the IC50 [1] was 0.647 nM and the IC50 [2, 3] was 0.112 nM.

Molecule `C[C@H](NC(=O)C(C)(F)F)[C@H](Oc1ccc2c(cnn2-c2cccc(C(=O)NC3CCCC3)c2)c1)c1ccc2c(c1)OCCO2` [Example 7, N-cyclopentyl-3-(5-{[(1R,2S)-2-[(2,2-difluoropropanoyl)amino]-1-(2,3-dihydro-1,4-benzodioxin-6-yl)propyl]oxy}-1H-indazol-1-yl)benzamide] has an IC50 [1] of 1.3 nM and an IC50 [2, 3] of 0.163 nM.

`CC[C@@H](O)CNC(=O)c1cccc(-n2ncc3cc(O[C@H](c4ccc5c(c4)OCOC5)[C@H](C)NC(=O)C(C)(F)F)ccc32)c1` [Example 11, 3-[5-({(1R,2S)-1-(4H-1,3-benzodioxin-7-yl)-2-[(2,2-difluoropropanoyl)amino]propyl}oxy)-1H-indazol-1-yl]-N-[(2R)-2-hydroxybutyl]benzamide] showed an IC50 [1] of 2.15 nM and an IC50 [2, 3] of 0.517 nM.

Molecule `C[C@H](NC(=O)C(C)(F)F)[C@H](Oc1ccc2c(cnn2-c2cccc(C(=O)NC3CCCC3)c2)c1)c1ccc2c(c1)OCOC2` [Example 8, 3-[5-({(1R,2S)-1-(4H-1,3-benzodioxin-7-yl)-2-[(2,2-difluoropropanoyl)amino]propyl}oxy)-1H-indazol-1-yl]-N-cyclopentylbenzamide] has an IC50 [1] of 0.796 nM and an IC50 [2, 3] of 0.388 nM.

Molecule `C[C@H](NC(=O)C(C)(F)F)[C@H](Oc1ccc2c(cnn2-c2cccc(C(=O)N[C@H]3CCC[C@@H]3O)c2)c1)c1ccc2c(c1)OCOC2` [Example 18, 3-[5-({(1R,2S)-1-(4H-1,3-benzodioxin-7-yl)-2-[(2,2-difluoropropanoyl)amino]propyl}oxy)-1H-indazol-1-yl]-N-[(1S,2S)-2-hydroxycyclopentyl]benzamide] has an IC50 [1] of 3.44 nM and an IC50 [2, 3] of 0.552 nM.

`C[C@H](NC(=O)C(C)(F)F)[C@H](Oc1ccc2c(cnn2-c2cccc(C(=O)N[C@H]3CC[S+]([O-])C3)c2)c1)c1ccc2c(c1)OCOC2` (single isomer, unassigned) [Example 15] was tested, and the IC50 [1] was 3.64 nM and the IC50 [2, 3] was 0.499 nM.

`C[C@H](NC(=O)C(C)(F)F)[C@H](Oc1ccc2c(cnn2-c2cccc(C(=O)N[C@H]3CCS(=O)(=O)C3)c2)c1)c1ccc2c(c1)OCOC2` [Example 4, 3-[5-({(1R,2S)-1-(4H-1,3-benzodioxin-7-yl)-2-[(2,2-difluoropropanoyl)amino]propyl}oxy)-1H-indazol-1-yl]-N-[(3S)-1,1-dioxidotetrahydrothiophen-3-yl]benzamide] was tested, and the IC50 [2, 3] was 0.733 nM.

In the case of `C[C@H](NC(=O)C(C)(F)F)[C@H](Oc1ccc2c(cnn2-c2cccc(C(=O)N[C@@H]3CCS(=O)(=O)C3)c2)c1)c1ccc2c(c1)OCOC2` [Example 3, 3-[5-({(1R,2S)-1-(4H-1,3-Benzodioxin-7-yl)-2-[(2,2-difluoropropanoyl)amino]propyl}oxy)-1H-indazol-1-yl]-N-[(3R)-1,1-dioxidotetrahydrothiophen-3-yl]benzamide], the IC50 [2, 3] is reported as 0.344 nM.

For `C[C@H](NC(=O)C(C)(F)F)[C@H](Oc1ccc2c(cnn2-c2cccc(C(=O)N[C@H]3CC[S+]([O-])C3)c2)c1)c1ccc2c(c1)OCOC2` (single isomer, unassigned) [Example 16], the IC50 [1] was 4.27 nM and the IC50 ([2]; downregulation of β-galactosidase activity) was 0.6 nM.

Molecule `C[C@H](NC(=O)C(C)(F)F)[C@H](Oc1ccc2c(cnn2-c2cccc(C(=O)NCc3ccccc3)c2)c1)c1ccc2c(c1)OCOC2` [Example 17, 3-[5-({(1R,2S)-1-(4H-1,3-benzodioxin-7-yl)-2-[(2,2-difluoropropanoyl)amino]propyl}oxy)-1H-indazol-1-yl]-N-benzylbenzamide] has an IC50 [1] of 0.996 nM and an IC50 [2, 3] of 0.754 nM.

Source: patent US8916600B2, “Phenyl and benzodioxinyl substituted indazoles derivatives” (Astrazeneca AB, priority 2008, dated 2014)
